According to PMC10272112 (Nature Communications, 2023):
Values joined by “and” are separate entries in the source; they are usually repeats but may differ in a detail not shown here. Identical values can stand only once.

Legend:
HDAC2 = HDAC2 (Homo sapiens, UniProt Q92769); experiment: HDAC-Glo assay; format: biochemical; parameters: purchased BPS Bioscience 50002; conditions: for EC50: read-out: log EC50 from dose-dependent HDAC inhibition curves (converted); for HDAC2 relative activity: sheet S2b
HDAC2, sequence (Q92769 whole entry): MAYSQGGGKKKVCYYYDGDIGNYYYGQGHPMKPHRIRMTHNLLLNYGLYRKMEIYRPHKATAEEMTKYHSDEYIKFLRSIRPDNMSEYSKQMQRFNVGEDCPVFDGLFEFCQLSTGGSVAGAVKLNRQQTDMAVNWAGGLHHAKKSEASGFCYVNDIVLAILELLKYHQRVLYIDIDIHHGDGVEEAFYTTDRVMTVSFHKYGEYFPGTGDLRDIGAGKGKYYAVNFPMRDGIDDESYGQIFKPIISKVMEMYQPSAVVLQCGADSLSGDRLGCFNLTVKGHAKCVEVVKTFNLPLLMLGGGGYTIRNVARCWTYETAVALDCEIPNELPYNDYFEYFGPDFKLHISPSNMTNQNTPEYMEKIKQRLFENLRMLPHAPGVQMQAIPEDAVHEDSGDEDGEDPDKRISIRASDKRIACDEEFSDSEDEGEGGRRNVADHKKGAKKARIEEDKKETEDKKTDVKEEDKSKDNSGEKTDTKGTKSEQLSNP
Description: (§1) To validate the inhibition of HDACs by LA and LM and elaborate on the structure-activity relationship (SAR) of enantiomers as well as oxidized versus reduced forms of the molecules, we performed enzyme activity assays for recombinant HDAC1,2,3,6,8 as well as FRET-based binding assay for recombinant HDAC10.
(§2) The experiments were performed according to ref. [48]. […] Drug dosing was performed with a D300e Digital Dispenser (Tecan). HDACs (7 ng/mL for HDAC1, 25 ng/mL for HDAC2, 200 ng/mL for HDAC3/Ncor2 complex, 100 ng/mL for HDAC6, 200 ng/mL for HDAC8) and inhibitors were incubated together at room temperature (RT) for 30 min. After the addition of the HDAC-Glo™ I/II reagent, plates were shaken (800 rpm orbital shaker, 30 s), centrifuged (300 g, 1 min), and incubated at RT for 30 min. Luminescence was detected with a CLARIOstar (BMG Labtech) plate reader.

HDAC1 = HDAC1 (Homo sapiens, UniProt Q13547); experiment: HDAC-Glo assay; format: biochemical; parameters: purchased BPS Bioscience 50051; conditions: for EC50: read-out: log EC50 from dose-dependent HDAC inhibition curves (converted)
HDAC1, sequence (Q13547 whole entry): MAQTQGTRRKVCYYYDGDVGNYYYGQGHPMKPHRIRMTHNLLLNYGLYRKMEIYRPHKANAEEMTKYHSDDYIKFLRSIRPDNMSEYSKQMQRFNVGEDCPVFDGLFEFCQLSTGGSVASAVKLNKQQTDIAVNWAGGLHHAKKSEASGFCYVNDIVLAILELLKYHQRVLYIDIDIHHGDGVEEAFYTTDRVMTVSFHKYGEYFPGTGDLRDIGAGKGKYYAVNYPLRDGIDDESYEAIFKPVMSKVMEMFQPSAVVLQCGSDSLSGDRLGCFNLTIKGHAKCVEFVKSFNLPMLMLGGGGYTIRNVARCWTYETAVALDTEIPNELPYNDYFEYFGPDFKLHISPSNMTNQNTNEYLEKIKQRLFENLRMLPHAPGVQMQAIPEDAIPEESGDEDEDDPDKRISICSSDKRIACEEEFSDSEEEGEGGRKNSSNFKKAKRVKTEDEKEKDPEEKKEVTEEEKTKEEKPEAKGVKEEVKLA
Description: as §1, §2

[1] = 0.5 M TCEP, log10 M -3.30103, 3 technical replicates
[2] = 0.5 M TCEP, log10 M -3.82945, 3 technical replicates
[3] = 0.5 M TCEP, log10 M -4.35788, 3 technical replicates
[4] = 0.5 M TCEP, log10 M -4.88629, 3 technical replicates
[5] = 0.5 M TCEP, log10 M -5.41477, 3 technical replicates
[6] = 0.5 M TCEP, log10 M -5.94309, 3 technical replicates
[7] = 0.5 M TCEP, log10 M -6.47756, 3 technical replicates
[8] = 0.5 M TCEP, log10 M -6.87615, 3 technical replicates
[9] = no TCEP, log10 M -3.30103, 3 technical replicates
[10] = no TCEP, log10 M -3.82945, 3 technical replicates
[11] = no TCEP, log10 M -4.35788, 3 technical replicates
[12] = no TCEP, log10 M -4.88629, 3 technical replicates
[13] = no TCEP, log10 M -5.41477, 3 technical replicates
[14] = no TCEP, log10 M -5.94309, 3 technical replicates
[15] = no TCEP, log10 M -6.47756, 3 technical replicates
[16] = no TCEP, log10 M -6.87615, 3 technical replicates

## O=C(O)CCCCC1CCSS1 (racemic) [(R/S)-LA, (R/S)-lipoic acid]
HDAC2; [1]
  HDAC enzymatic activity (normalized luminescence): 4.517 and 4.579 and 4.669
HDAC2; [2]
  HDAC enzymatic activity (normalized luminescence): 14.6838 and 15.1597 and 14.9231
HDAC2; [3]
  HDAC enzymatic activity (normalized luminescence): 37.5127 and 37.9281 and 38.3803
HDAC2; [4]
  HDAC enzymatic activity (normalized luminescence): 65.6665 and 63.7639 and 65.7588
HDAC2; [5]
  HDAC enzymatic activity (normalized luminescence): 83.5292 and 85.2785 and 86.439
HDAC2; [6]
  HDAC enzymatic activity (normalized luminescence): 90.5846 and 91.5425 and 93.8157
HDAC2; [7]
  HDAC enzymatic activity (normalized luminescence): 95.0155 and 95.0012 and 98.6939
HDAC2; [8]
  HDAC enzymatic activity (normalized luminescence): 97.7664 and 98.3233 and 101.153
HDAC2; [9]
  HDAC enzymatic activity (normalized luminescence): 44.2753 and 42.6833 and 42.8281
HDAC2; [10]
  HDAC enzymatic activity (normalized luminescence): 74.0269 and 74.0487 and 74.0611
HDAC2; [11]
  HDAC enzymatic activity (normalized luminescence): 91.4647 and 91.3223 and 92.1121
HDAC2; [12]
  HDAC enzymatic activity (normalized luminescence): 96.4611 and 96.3058 and 97.9917
HDAC2; [13]
  HDAC enzymatic activity (normalized luminescence): 98.5234 and 99.2037 and 100.016
HDAC2; [14]
  HDAC enzymatic activity (normalized luminescence): 96.9658 and 96.4307 and 98.1115
HDAC2; [15]
  HDAC enzymatic activity (normalized luminescence): 98.5723 and 98.9021 and 101.472
HDAC2; [16]
  HDAC enzymatic activity (normalized luminescence): 102.033 and 100.085 and 101.747
HDAC2
  EC50: 27.9 µM
HDAC2; log conc -3.30103
  HDAC2 relative activity: 1.632 and 1.608 and 1.6104
HDAC2; log conc -3.82945
  HDAC2 relative activity: 4.377 and 4.239 and 4.397
HDAC2; log conc -4.35788
  HDAC2 relative activity: 14.1348 and 14.1034 and 14.0027
HDAC2; log conc -4.88629
  HDAC2 relative activity: 32.6794 and 32.1097 and 32.0348
HDAC2; log conc -5.41477
  HDAC2 relative activity: 62.7872 and 63.5079 and 63.5078
HDAC2; log conc -5.94309
  HDAC2 relative activity: 83.5078 and 83.413 and 83.6174
HDAC2; log conc -6.47756
  HDAC2 relative activity: 91.2192 and 90.5813 and 91.6447
HDAC2; log conc -6.87615
  HDAC2 relative activity: 99.2152 and 97.4208 and 97.0893
HDAC1; [1]
  HDAC enzymatic activity (normalized luminescence): 2.253 and 2.122 and 2.222
  raw luminescence signal, HDAC1 inhibition: 9033 and 8544 and 8916
HDAC1; [2]
  HDAC enzymatic activity (normalized luminescence): 6.603 and 6.6 and 6.7561
  raw luminescence signal, HDAC1 inhibition: 25221 and 25211 and 25792
HDAC1; [3]
  HDAC enzymatic activity (normalized luminescence): 20.3513 and 20.4988 and 20.2352
  raw luminescence signal, HDAC1 inhibition: 76389 and 76938 and 75957
HDAC1; [4]
  HDAC enzymatic activity (normalized luminescence): 44.8545 and 45.009 and 46.4019
  raw luminescence signal, HDAC1 inhibition: 167582 and 168157 and 173341
HDAC1; [5]
  HDAC enzymatic activity (normalized luminescence): 75.7737 and 78.1543 and 78.9575
  raw luminescence signal, HDAC1 inhibition: 282653 and 291513 and 294502
HDAC1; [6]
  HDAC enzymatic activity (normalized luminescence): 89.586 and 92.205 and 92.7553
  raw luminescence signal, HDAC1 inhibition: 334058 and 343805 and 345853
HDAC1; [7]
  HDAC enzymatic activity (normalized luminescence): 95.6344 and 96.1277 and 99.0353
  raw luminescence signal, HDAC1 inhibition: 356568 and 358404 and 369225
HDAC1; [8]
  HDAC enzymatic activity (normalized luminescence): 97.1294 and 100.284 and 101.314
  raw luminescence signal, HDAC1 inhibition: 362132 and 373872 and 377707
HDAC1; [9]
  HDAC enzymatic activity (normalized luminescence): 34.5758 and 34.0329 and 33.4507
HDAC1; [10]
  HDAC enzymatic activity (normalized luminescence): 69.9436 and 70.5688 and 71.7678
HDAC1; [11]
  HDAC enzymatic activity (normalized luminescence): 91.6791 and 90.2694 and 91.9437
HDAC1; [12]
  HDAC enzymatic activity (normalized luminescence): 97.2441 and 96.7873 and 98.245
HDAC1; [13]
  HDAC enzymatic activity (normalized luminescence): 102.844 and 103.267 and 105.666
HDAC1; [14]
  HDAC enzymatic activity (normalized luminescence): 103.58 and 104.044 and 104.328
HDAC1; [15]
  HDAC enzymatic activity (normalized luminescence): 103.305 and 103.257 and 103.904
HDAC1; [16]
  HDAC enzymatic activity (normalized luminescence): 102.627 and 100.722 and 100.875
HDAC1
  EC50: 11.4 µM
HDAC1; sheet S2b, log conc -3.30103
  HDAC1 relative activity: 1.283 and 1.298 and 1.278
HDAC1; sheet S2b, log conc -3.82945
  HDAC1 relative activity: 3.514 and 3.391 and 3.355
HDAC1; sheet S2b, log conc -4.35788
  HDAC1 relative activity: 11.0684 and 11.0093 and 10.6578
HDAC1; sheet S2b, log conc -4.88629
  HDAC1 relative activity: 24.6308 and 24.7045 and 25.3305
HDAC1; sheet S2b, log conc -5.41477
  HDAC1 relative activity: 53.4112 and 53.3483 and 54.8189
HDAC1; sheet S2b, log conc -5.94309
  HDAC1 relative activity: 78.0321 and 77.9262 and 78.089
HDAC1; sheet S2b, log conc -6.47756
  HDAC1 relative activity: 94.813 and 93.3015 and 93.5028
HDAC1; sheet S2b, log conc -6.87615
  HDAC1 relative activity: 93.4945 and 92.0736 and 92.8885
HDAC1; sheet S2d, log conc -3.30103
  HDAC1 relative activity: 2.253 and 2.122 and 2.222
HDAC1; sheet S2d, log conc -3.82945
  HDAC1 relative activity: 6.603 and 6.6 and 6.7561
HDAC1; sheet S2d, log conc -4.35788
  HDAC1 relative activity: 20.3513 and 20.4988 and 20.2352
HDAC1; sheet S2d, log conc -4.88629
  HDAC1 relative activity: 44.8545 and 45.009 and 46.4019
HDAC1; sheet S2d, log conc -5.41477
  HDAC1 relative activity: 75.7737 and 78.1543 and 78.9575
HDAC1; sheet S2d, log conc -5.94309
  HDAC1 relative activity: 89.586 and 92.205 and 92.7553
HDAC1; sheet S2d, log conc -6.47756
  HDAC1 relative activity: 95.6344 and 96.1277 and 99.0353
HDAC1; sheet S2d, log conc -6.87615
  HDAC1 relative activity: 97.1294 and 100.284 and 101.314

## NC(=O)CCCCC1CCSS1 (racemic) [(R/S)-LM, (R/S)-lipoamide]
HDAC2
  EC50: 6.64 µM
HDAC2; log conc -3.30103
  HDAC2 relative activity: 71.964 and 72.3177 and 72.1483
HDAC2; log conc -3.82945
  HDAC2 relative activity: 80.6393 and 80.2369 and 79.5941
HDAC2; log conc -4.35788
  HDAC2 relative activity: 93.3465 and 95.4258 and 92.7624
HDAC2; log conc -4.88629
  HDAC2 relative activity: 96.436 and 96.5227 and 94.9323
HDAC2; log conc -5.41477
  HDAC2 relative activity: 101.607 and 103.068 and 101.387
HDAC2; log conc -5.94309
  HDAC2 relative activity: 100.457 and 99.1256 and 100.639
HDAC2; log conc -6.47756
  HDAC2 relative activity: 98.6184 and 99.6756 and 101.604
HDAC2; log conc -6.87615
  HDAC2 relative activity: 101.142 and 100.648 and 102.314
HDAC1; [1]
  raw luminescence signal, HDAC1 inhibition: 5424 and 5479 and 5403
HDAC1; [2]
  raw luminescence signal, HDAC1 inhibition: 13727 and 13267 and 13133
HDAC1; [3]
  raw luminescence signal, HDAC1 inhibition: 41841 and 41621 and 40313
HDAC1; [4]
  raw luminescence signal, HDAC1 inhibition: 92316 and 92590 and 94920
HDAC1; [5]
  raw luminescence signal, HDAC1 inhibition: 199427 and 199193 and 204666
HDAC1; [6]
  raw luminescence signal, HDAC1 inhibition: 291058 and 290664 and 291270
HDAC1; [7]
  raw luminescence signal, HDAC1 inhibition: 353511 and 347886 and 348635
HDAC1; [8]
  raw luminescence signal, HDAC1 inhibition: 348604 and 343316 and 346349
HDAC1
  EC50: 4.62 µM
HDAC1; sheet S2b, log conc -3.30103
  HDAC1 relative activity: 71.5662 and 71.4067 and 71.4672
HDAC1; sheet S2b, log conc -3.82945
  HDAC1 relative activity: 85.3568 and 84.4089 and 84.9362
HDAC1; sheet S2b, log conc -4.35788
  HDAC1 relative activity: 99.571 and 98.7787 and 97.4651
HDAC1; sheet S2b, log conc -4.88629
  HDAC1 relative activity: 94.8867 and 95.3188 and 94.2715
HDAC1; sheet S2b, log conc -5.41477
  HDAC1 relative activity: 102.996 and 104.783 and 104.694
HDAC1; sheet S2b, log conc -5.94309
  HDAC1 relative activity: 100.727 and 101.673 and 102.371
HDAC1; sheet S2b, log conc -6.47756
  HDAC1 relative activity: 104.216 and 103.707 and 104.551
HDAC1; sheet S2b, log conc -6.87615
  HDAC1 relative activity: 97.8849 and 97.6343 and 99.4595
